# Measured values as given in ChEMBL document CHEMBL1126649, “Development of a pharmacophore for inhibition of human liver cytochrome P-450 2D6: molecular modeling and inhibition studies” (J Med Chem, 1993).
# Assays:
# Cytochrome P450 2D6 [1] = target: T1, Cytochrome P450 2D6 (Homo sapiens, UniProt P10635); experiment: Inhibitory effect on Bufuralol 1'-hydroxylation by human liver microsomes (Ki = apparent inhibition constant); format: ADME, Microsome
# Cytochrome P450 2D6 [2] = target: T1, Cytochrome P450 2D6
# Cytochrome P450 2D6 [3] = target: T1, Cytochrome P450 2D6; remark: listed apart in the source
# Cytochrome P450 2D6 [4] = target: T1, Cytochrome P450 2D6; remark: listed apart in the source
# Cytochrome P450 2D6 [5] = target: T1, Cytochrome P450 2D6; remark: listed apart in the source
# Cytochrome P450 2D6 [6] = target: T1, Cytochrome P450 2D6; experiment: Inhibition of partially purified cytochrome P450 2D6 1'-hydroxybufuralol formation
# Cytochrome P450 2D6 [7] = target: T1, Cytochrome P450 2D6; experiment: Apparent inhibitory constant (Ki) for Bufuralol 1'-hydroxylation by human liver microsomes; format: ADME, Microsome
# Cytochrome P450 2D6 [8] = target: T1, Cytochrome P450 2D6; remark: listed apart in the source
# Cytochrome P450 2D6 [9] = target: T1, Cytochrome P450 2D6; experiment: Inhibitory constant for cytochrome P450 2D6; format: ADME
# Cytochrome P450 2D6 [10] = target: T1, Cytochrome P450 2D6; remark: listed apart in the source
# T1 sequence (P10635 whole entry): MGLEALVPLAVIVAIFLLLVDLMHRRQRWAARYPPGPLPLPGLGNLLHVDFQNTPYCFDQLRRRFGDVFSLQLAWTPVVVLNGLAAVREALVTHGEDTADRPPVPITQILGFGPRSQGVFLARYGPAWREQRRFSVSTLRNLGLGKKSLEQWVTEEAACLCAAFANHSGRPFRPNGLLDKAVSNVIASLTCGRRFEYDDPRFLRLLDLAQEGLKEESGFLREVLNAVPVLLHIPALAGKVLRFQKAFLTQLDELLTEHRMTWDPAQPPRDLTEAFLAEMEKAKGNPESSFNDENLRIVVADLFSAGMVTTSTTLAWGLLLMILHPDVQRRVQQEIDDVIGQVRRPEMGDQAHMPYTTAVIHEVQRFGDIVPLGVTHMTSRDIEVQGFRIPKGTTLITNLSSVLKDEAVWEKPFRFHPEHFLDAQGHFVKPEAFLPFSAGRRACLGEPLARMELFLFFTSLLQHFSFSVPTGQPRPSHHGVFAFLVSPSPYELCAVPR
molecule,measurement,setting,value
C=CC1C[N+]2(c3ccccc3)CCC1CC2C(O)c1ccnc2ccc(OC)cc12 (centres undefined),Ki,Cytochrome P450 2D6 [1],25 µM
COc1ccc2[nH]cc(CCO)c2c1,Ki,Cytochrome P450 2D6 [1],100 µM
COc1ccc2ncccc2c1,Ki,Cytochrome P450 2D6 [1],> 1000 µM
CC1OC=C(CO)[C@H]2C[C@H]3c4[nH]c5ccccc5c4CCN3CC12 (some centres undefined),Ki,Cytochrome P450 2D6 [1],1.1 µM
C=CC1CN2CCC1CC2C(=O)c1ccnc2ccc(OC)cc12 (centres undefined),Ki,Cytochrome P450 2D6 [1],0.72 µM
C=CC1CN2CCC1C[C@H]2[C@H](O)c1ccnc2ccc(Cl)cc12 (some centres undefined),Ki,Cytochrome P450 2D6 [1],3.5 µM
COC(=O)C1=CO[C@H](C)[C@H]2CN3CCc4c([nH]c5ccccc45)[C@@H]3C[C@H]12,Ki,Cytochrome P450 2D6 [1],0.017 µM
CCC1CN2CCC1CC2[C@H](O)c1ccnc2ccccc12 (some centres undefined),Ki,Cytochrome P450 2D6 [2],24 µM
same,Ki,Cytochrome P450 2D6 [3],9.6 µM
same,Ki,Cytochrome P450 2D6 [4],8 µM
C=CC1CN2CCC1C[C@@H]2[C@@H](O)c1ccnc2ccc(Cl)cc12 (some centres undefined),Ki,Cytochrome P450 2D6 [1],0.52 µM
COC(=O)C1=CNC(C)C2CN3CCc4c([nH]c5ccccc45)[C@@H]3C[C@H]12 (some centres undefined),Ki,Cytochrome P450 2D6 [1],2.9 µM
O=C(O)[C@H]1[C@H]2C[C@H]3c4[nH]c5ccccc5c4CCN3C[C@@H]2CC[C@H]1O,Ki,Cytochrome P450 2D6 [1],6.3 µM
COC(=O)C1=CO[C@@H](C)[C@H]2C[n+]3ccc4c([nH]c5ccccc54)c3C[C@H]12,Ki,Cytochrome P450 2D6 [1],2.2 µM
CCC1CN2CCC1CC2C(O)c1ccnc2ccccc12 (centres undefined),Ki,Cytochrome P450 2D6 [2],3.2 µM
same,Ki,Cytochrome P450 2D6 [3],2.8 µM
same,Ki,Cytochrome P450 2D6 [4],1.6 µM
C=CC1CN2CCC1C[C@@H]2[C@@H](O)c1ccnc2ccccc12 (stereo in doubt; 9b),Ki,Cytochrome P450 2D6 [5],1 µM
same,Ki,Cytochrome P450 2D6 [2],5.4 µM
same,Ki,Cytochrome P450 2D6 [3],3.5 µM
same,Ki,Cytochrome P450 2D6 [6],2.6 µM
same,Ki,Cytochrome P450 2D6 [4],3.5 µM
same,Ki,Cytochrome P450 2D6 [7],3.5 µM
C=CC1CN2CCC1C[C@@H]2[C@@H](O)c1ccnc2ccccc12 (stereo in doubt; 10b),Ki,Cytochrome P450 2D6 [2],16 µM
same,Ki,Cytochrome P450 2D6 [8],9.3 µM
same,Ki,Cytochrome P450 2D6 [3],7.3 µM
same,Ki,Cytochrome P450 2D6 [6],25 µM
same,Ki,Cytochrome P450 2D6 [4],7.5 µM
same,Ki,Cytochrome P450 2D6 [1],7.5 µM
COC(=O)C1=CO[C@@H](C)[C@H]2C=[N+]3CCc4c([nH]c5ccccc45)[C@@H]3C[C@H]12 [CATHENAMINE],Ki,Cytochrome P450 2D6 [1],3.2 µM
CCC1CN2CCC1CC2[C@@H](O)c1ccnc2ccc(OC)cc12 (some centres undefined) [DIHYDROQUINIDINE],Ki,Cytochrome P450 2D6 [1],0.066 µM
Cc1nccc2c1[nH]c1ccccc12 [HARMAN],Ki,Cytochrome P450 2D6 [1],86 µM
CC[C@H]1CN2CC[C@H]1C[C@H]2[C@H](O)c1ccnc2ccc(OC)cc12 [HYDROQUININE],Ki,Cytochrome P450 2D6 [1],4 µM
CN1[C@@H](CC(=O)c2ccccc2)CCC[C@H]1C[C@H](O)c1ccccc1 [LOBELINE],Ki,Cytochrome P450 2D6 [9],0.12 µM
CC(C)N1CCC(c2ccccc2)(c2ccccc2)CC1 [PRODIPINE],Ki,Cytochrome P450 2D6 [9],0.0048 µM
c1ccc2c(c1)[n-]c1c3[n+](ccc12)CC1CCCCC1C3 (centres undefined) [SEMPERVIRINE],Ki,Cytochrome P450 2D6 [1],9.7 µM
COC(=O)C1=CO[C@@H](C)[C@@H]2CN3CCc4c([nH]c5ccccc45)[C@@H]3C[C@H]12 [TETRAHYDROALSTONINE],Ki,Cytochrome P450 2D6 [1],1.1 µM
RAUWOLFIA SERPENTINA,Ki,Cytochrome P450 2D6 [10],0.0046 µM
same,Ki,Cytochrome P450 2D6 [7],0.0046 µM
